The numbers were not newly measured in publication PMC7553790 (The Journal of Experimental Medicine, 2020), which cites them from elsewhere.

The data set has as its system Aβ42. As to conditions: cell-based studies.

Where two headings read alike, the source gives them in different places. A value given as a limit tells only on which side of the number the result lay.

By IC50 is commonly meant the midpoint of a concentration-inhibition curve. As to `O=C(O)C1(c2ccc(-c3ccc(Cl)c(Cl)c3)c(F)c2)CC1` [CHF5074, 1-(3′,4′-Dichloro-2-fluoro[1,1′-biphenyl]-4-yl)-cyclopropanecarboxylic acid], where the note is “read-out: IC50 of decreasing Aβ42, ref Imbimbo et al., 2007”, the IC50 is 3.6 µM.

For `O=C(O)[C@H](CC1CCC1)c1cc(Cl)c(OCC(F)(F)F)c(-c2ccc(C(F)(F)F)cc2)c1` [EVP-0015962], the IC50 (read-out: IC50 of Aβ42, ref Rogers et al., 2012) was more than 0.02 µM.
